The NIST ThermoML archive (doi:10.1016/j.jct.2016.11.007)

Test: mn = molality of the nth substance listed, in mol/kg
Conditions: Liquid, Alternating current cell with electrodes

OB(O)O [boric acid] + O
Conditions	electrical conductivity [S/m]
298.15 K, 19767 kPa, m1 = 0.000461	2.9e-05
298.15 K, 19767 kPa, m1 = 0.001034	4.34e-05
298.15 K, 19767 kPa, m1 = 0.002214	7.29e-05
298.15 K, 19767 kPa, m1 = 0.003558	8.46e-05
298.15 K, 19767 kPa, m1 = 0.006801	0.000104
298.15 K, 19767 kPa, m1 = 0.01448	0.000141
298.15 K, 19767 kPa, m1 = 0.03227	0.000203
298.15 K, 19767 kPa, m1 = 0.05626	0.000261
298.15 K, 19767 kPa, m1 = 0.1313	0.000513
373.33 K, 19683 kPa, m1 = 0.002216	0.000155
373.33 K, 19683 kPa, m1 = 0.01449	0.000175
373.33 K, 19683 kPa, m1 = 0.02381	0.000262
373.33 K, 19683 kPa, m1 = 0.04334	0.000409
373.33 K, 19683 kPa, m1 = 0.07421	0.000597
448.23 K, 19666 kPa, m1 = 0.0004623	0.000302
448.23 K, 19666 kPa, m1 = 0.00294	0.000347
448.23 K, 19666 kPa, m1 = 0.00873	0.000421
448.23 K, 19666 kPa, m1 = 0.01287	0.000473
448.23 K, 19666 kPa, m1 = 0.0243	0.00059
448.23 K, 19666 kPa, m1 = 0.03791	0.000706
448.23 K, 19666 kPa, m1 = 0.07013	0.000939
448.23 K, 19666 kPa, m1 = 0.1015	0.00114
523.32 K, 19674 kPa, m1 = 0.0005523	0.000382
523.32 K, 19674 kPa, m1 = 0.001757	0.000393
523.32 K, 19674 kPa, m1 = 0.004534	0.000408
523.32 K, 19674 kPa, m1 = 0.009517	0.000445
523.32 K, 19674 kPa, m1 = 0.02168	0.000515
523.32 K, 19674 kPa, m1 = 0.04237	0.000632
523.32 K, 19674 kPa, m1 = 0.07216	0.00078
523.32 K, 19674 kPa, m1 = 0.1017	0.000922
547.2 K, 20900 kPa, m1 = 0.0009361	0.000382
547.2 K, 20900 kPa, m1 = 0.002371	0.000395
547.2 K, 20900 kPa, m1 = 0.003744	0.000405
547.2 K, 20900 kPa, m1 = 0.00586	0.000419
547.2 K, 20900 kPa, m1 = 0.008845	0.000439
547.2 K, 20900 kPa, m1 = 0.01163	0.000459
547.2 K, 20900 kPa, m1 = 0.01515	0.000481
547.2 K, 20900 kPa, m1 = 0.02429	0.000535
548.35 K, 19600 kPa, m1 = 0.0008359	0.000374
548.35 K, 19600 kPa, m1 = 0.002368	0.000385
548.35 K, 19600 kPa, m1 = 0.005537	0.000406
548.35 K, 19600 kPa, m1 = 0.01208	0.000447
548.35 K, 19600 kPa, m1 = 0.02063	0.000495
548.35 K, 19600 kPa, m1 = 0.0288	0.000538
548.35 K, 19600 kPa, m1 = 0.04625	0.000617
548.35 K, 19600 kPa, m1 = 0.1015	0.000921
571.07 K, 19463 kPa, m1 = 0.000429	0.000323
571.07 K, 19463 kPa, m1 = 0.001139	0.000331
571.07 K, 19463 kPa, m1 = 0.004203	0.00035
572.82 K, 20769 kPa, m1 = 0.0002704	0.000339
572.82 K, 20769 kPa, m1 = 0.0005746	0.000349
572.82 K, 20769 kPa, m1 = 0.001483	0.000358
572.82 K, 20769 kPa, m1 = 0.00287	0.000369
572.82 K, 20769 kPa, m1 = 0.006337	0.000389
572.82 K, 20769 kPa, m1 = 0.01032	0.000414
572.82 K, 20769 kPa, m1 = 0.01719	0.000445
572.82 K, 20769 kPa, m1 = 0.0361	0.000516
572.82 K, 20769 kPa, m1 = 0.05276	0.000569
597.9 K, 20618 kPa, m1 = 0.0004999	0.000217
597.9 K, 20618 kPa, m1 = 0.0008991	0.000223
597.9 K, 20618 kPa, m1 = 0.001756	0.000227
597.9 K, 20618 kPa, m1 = 0.003156	0.000233
597.9 K, 20618 kPa, m1 = 0.00593	0.000242
597.9 K, 20618 kPa, m1 = 0.01032	0.000257
597.9 K, 20618 kPa, m1 = 0.02561	0.000303
621.13 K, 20620 kPa, m1 = 0.0003582	0.000117
621.13 K, 20620 kPa, m1 = 0.0009385	0.000117
621.13 K, 20620 kPa, m1 = 0.002851	0.00012
621.13 K, 20620 kPa, m1 = 0.00498	0.000125
621.13 K, 20620 kPa, m1 = 0.01107	0.000138
621.13 K, 20620 kPa, m1 = 0.01908	0.000161
